From US9346809B2 (LEO PHARMA A/S, priority 2009, dated 2016)
Like-named read-outs stand apart in the source and are kept apart here.

Assays:
Assay type in all cases: biochemical
[1] = molecular target: T1, JAK1 (aa 850-1154, catalytic domain, GST-tag) (Homo sapiens, UniProt P23458); test: JAK kinase assay (HTRF, phosphorylation of TK substrate-biotin), JAK1; details: ATP at Km (7 μM)
T1 construct: JAK1 (aa 850-1154) and TYK2 (aa 871-1187) are expressed with an N-terminally fused GST-tag; GST (N); purchased Carna Biosciences, Inc; host or cells: baculovirus expression system
T1 sequence (P23458 850-1154): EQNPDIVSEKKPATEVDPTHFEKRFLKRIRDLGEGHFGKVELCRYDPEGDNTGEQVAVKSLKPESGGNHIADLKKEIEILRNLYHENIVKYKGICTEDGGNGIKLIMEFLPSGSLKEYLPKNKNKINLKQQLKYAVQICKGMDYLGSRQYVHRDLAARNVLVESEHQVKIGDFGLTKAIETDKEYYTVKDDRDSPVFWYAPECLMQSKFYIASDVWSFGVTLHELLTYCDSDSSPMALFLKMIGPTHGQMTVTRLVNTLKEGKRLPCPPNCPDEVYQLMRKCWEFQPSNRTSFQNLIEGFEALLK
Outline: (§1)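 EC50 values come from HTRF signal of phospho-peptide detected by STK Ab Cryptate and Streptavidin-XL665 after overnight incubation. Reactions ran 20-30 min at RT in Hepes pH 7.0, 0.01% BSA, 1 mM DTT, with ATP at Km: 7, 4, 2 and 13 μM for JAK1, JAK2, JAK3, TYK2.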

[2] = molecular target: T2, JAK2 (catalytic domain, His-tag) (Homo sapiens, UniProt O60674); test: JAK kinase assay (HTRF, phosphorylation of TK substrate-biotin), JAK2; details: ATP at Km (4 μM)
T2 construct: All four purified enzymes contain only the catalytic domain; His (N); purchased Carna Biosciences, Inc; host or cells: baculovirus expression system
T2 sequence (O60674 849-1124 limits assumed): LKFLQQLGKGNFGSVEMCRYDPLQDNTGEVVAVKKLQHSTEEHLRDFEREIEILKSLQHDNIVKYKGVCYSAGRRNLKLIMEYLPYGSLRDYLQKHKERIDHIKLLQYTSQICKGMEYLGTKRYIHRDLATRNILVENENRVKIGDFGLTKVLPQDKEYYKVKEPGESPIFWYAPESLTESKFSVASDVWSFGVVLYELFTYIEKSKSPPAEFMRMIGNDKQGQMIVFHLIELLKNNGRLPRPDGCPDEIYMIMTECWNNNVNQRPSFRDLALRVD
Outline: as §1

[3] = molecular target: T3, JAK3 (catalytic domain, His-tag) (Homo sapiens, UniProt P52333); test: JAK kinase assay (HTRF, phosphorylation of TK substrate-biotin), JAK3; details: ATP at Km (2 μM)
T3 construct: All four purified enzymes contain only the catalytic domain; His (N); purchased Carna Biosciences, Inc; host or cells: baculovirus expression system
T3 sequence (P52333 822-1111 limits assumed): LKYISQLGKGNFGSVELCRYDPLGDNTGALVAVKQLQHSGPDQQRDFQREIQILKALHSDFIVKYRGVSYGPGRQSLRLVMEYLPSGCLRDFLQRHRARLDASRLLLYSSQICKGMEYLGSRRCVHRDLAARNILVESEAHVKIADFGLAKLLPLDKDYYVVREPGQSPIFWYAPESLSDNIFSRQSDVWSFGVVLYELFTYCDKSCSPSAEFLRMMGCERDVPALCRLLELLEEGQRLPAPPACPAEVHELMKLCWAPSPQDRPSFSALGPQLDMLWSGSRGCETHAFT
Outline: as §1

[4] = molecular target: T4, TYK2 (aa 871-1187, catalytic domain, GST-tag) (Homo sapiens, UniProt P29597); test: JAK kinase assay (HTRF, phosphorylation of TK substrate-biotin), TYK2; details: ATP at Km (13 μM)
T4 construct: JAK1 (aa 850-1154) and TYK2 (aa 871-1187) are expressed with an N-terminally fused GST-tag; GST (N); purchased Carna Biosciences, Inc; host or cells: baculovirus expression system
T4 sequence (P29597 871-1187): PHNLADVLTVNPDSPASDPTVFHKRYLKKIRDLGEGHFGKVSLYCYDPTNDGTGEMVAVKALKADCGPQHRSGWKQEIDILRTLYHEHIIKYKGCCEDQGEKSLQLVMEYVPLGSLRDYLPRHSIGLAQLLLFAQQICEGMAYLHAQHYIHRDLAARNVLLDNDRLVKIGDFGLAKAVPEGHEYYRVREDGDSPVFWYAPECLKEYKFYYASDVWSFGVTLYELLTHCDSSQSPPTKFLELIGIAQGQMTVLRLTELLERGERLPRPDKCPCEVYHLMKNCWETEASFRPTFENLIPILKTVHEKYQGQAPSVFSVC
Outline: as §1

[5] = read-out: JAK1 kinase inhibitory activity (EC50 indicator)
[6] = read-out: JAK2 kinase inhibitory activity (EC50 indicator)
[7] = read-out: JAK3 kinase inhibitory activity (EC50 indicator)
[8] = read-out: TYK2 kinase inhibitory activity (EC50 indicator)
[9] = HTRF assay, read-out: JAK1 kinase inhibitory activity (EC50 indicator)
[10] = HTRF assay, read-out: JAK2 kinase inhibitory activity (EC50 indicator)
[11] = HTRF assay, read-out: JAK3 kinase inhibitory activity (EC50 indicator)
[12] = HTRF assay, read-out: TYK2 kinase inhibitory activity (EC50 indicator)
[13] = HTRF assay, read-out: JAK1 kinase inhibitory activity (EC50)
[14] = HTRF assay, read-out: JAK2 kinase inhibitory activity (EC50)
[15] = HTRF assay, read-out: JAK3 kinase inhibitory activity (EC50)
[16] = HTRF assay, read-out: TYK2 kinase inhibitory activity (EC50)

Row | Structure (SMILES) | EC50 [1, 5] [nM] | EC50 [2, 6] [nM] | EC50 [3, 7] [nM] | EC50 [4, 8] [nM] | EC50 [1, 9] [nM] | EC50 [2, 10] [nM] | EC50 [3, 11] [nM] | EC50 [4, 12] [nM] | other results
1 | Cc1c[nH]c2ncnc(N3CCN(C(=O)c4ccc(C#N)cc4)C4(CC4)C3)c12 [Example 118, 4-[7-(5-Methyl-7H-pyrrolo[2,3-d]pyrimidin-4-yl)-4,7-diaza-spiro[2.5]octane-4-carbonyl]-benzonitrile] | > 500 | > 500 | > 500 | > 500 | – | – | – | – | –
2 | O=C(CCC(F)(F)F)N1[C@@H]2CC[C@H]1CN(c1ncnc3[nH]ccc13)C2 [Example 181, 4,4,4-Trifluoro-1-[3-(7H-pyrrolo[2,3-d]pyrimidin-4-yl)-3,8-diaza-bicyclo[3.2.1]oct-8-yl]-butan-1-one] | < 100 | < 100 | 100 to 500 | 100 to 500 | – | – | – | – | –
3 | O=C(Cc1ccc(C(F)(F)F)cc1)N1CCN(c2ncnc3[nH]cc(Cl)c23)CC12CC2 [Example 321, 1-[7-(5-Chloro-7H-pyrrolo[2,3-d]pyrimidin-4-yl)-4,7-diaza-spiro[2.5]oct-4-yl]-2-(4-trifluoromethyl-phenyl)-ethanone] | – | – | – | – | 100 to 500 | 100 to 500 | < 100 | > 500 | –
4 | O=C(c1nsc2cc(Br)ccc12)N1[C@@H]2CC[C@@H]1CN(c1ncnc3[nH]ccc13)C2 [Example 360, (6-Bromo-benzo[d]isothiazol-3-yl)-[3-(7H-pyrrolo[2,3-d]pyrimidin-4-yl)-3,8-diaza-bicyclo[3.2.1]oct-8-yl]-methanone] | – | – | – | – | 100 to 500 | 100 to 500 | 100 to 500 | > 500 | –
5 | S=C(COc1ccccc1)N1CCN(c2ncnc3[nH]ccc23)CC12CC2 [Example 448, 2-Phenoxy-1-[7-(7H-pyrrolo[2,3-d]pyrimidin-4-yl)-4,7-diaza-spiro[2.5]oct-4-yl]-ethanethione] | – | – | – | – | – | – | – | – | EC50 [1, 13]: < 100 nM; EC50 [2, 14]: < 100 nM; EC50 [3, 15]: < 100 nM; EC50 [4, 16]: 100 to 500 nM
6 | O=C(c1ccc(CO)cc1)N1CCN(c2ncnc3[nH]ccc23)CC12CC2 [Example 155, (4-Hydroxymethyl-phenyl)-[7-(7H-pyrrolo[2,3-d]pyrimidin-4-yl)-4,7-diaza-spiro[2.5]oct-4-yl]-methanone] | < 100 | < 100 | 100 to 500 | 100 to 500 | – | – | – | – | –
7 | N#CCc1ccccc1C(=O)N1CCN(c2ncnc3[nH]ccc23)CC12CC2 [Example 300, {2-[7-(7H-Pyrrolo[2,3-d]pyrimidin-4-yl)-4,7-diaza-spiro[2.5]octane-4-carbonyl]-phenyl}-acetonitrile] | – | – | – | – | < 100 | < 100 | 100 to 500 | 100 to 500 | –
8 | O=C(c1ccc2[nH]ccc2c1)N1[C@@H]2CC[C@H]1CN(c1ncnc3[nH]ccc13)C2 [Example 341, (1H-Indol-5-yl)-[3-(7H-pyrrolo[2,3-d]pyrimidin-4-yl)-3,8-diaza-bicyclo[3.2.1]oct-8-yl]-methanone] | – | – | – | – | < 100 | < 100 | < 100 | 100 to 500 | –
9 | O=C(c1ccncc1)N1CCN(c2ncnc3[nH]ccc23)CC12CC2 [Example 3, Pyridin-4-yl-[7-(7H-pyrrolo[2,3-d]pyrimidin-4-yl)-4,7-diazaspiro[2.5]oct-4-yl]-methanone] | < 100 | < 100 | 100 to 500 | 100 to 500 | – | – | – | – | –
10 | COc1cnc2[nH]ccc2c1N1CCN(C(=O)Cc2cccc(C#N)c2)C2(CC2)C1 [Example 294, 3-{2-[7-(5-Methoxy-1H-pyrrolo[2,3-b]pyridin-4-yl)-4,7-diaza-spiro[2.5]oct-4-yl]-2-oxo-ethyl}-benzonitrile] | – | – | – | – | 100 to 500 | 100 to 500 | 100 to 500 | > 500 | –
11 | CC1CN(C(=O)C2(C#N)CC2)C2(CC2)CN1c1ncnc2[nH]ccc12 (stereo not shown) [Example 149, 1-[6-Methyl-7-(7H-pyrrolo[2,3-d]pyrimidin-4-yl)-4,7-diaza-spiro[2.5]octane-4-carbonyl]-cyclopropanecarbonitrile] | < 100 | < 100 | 100 to 500 | 100 to 500 | – | – | – | – | –
12 | CS(=O)(=O)c1ccc(C(=O)N2C3CCC2CN(c2ncnc4[nH]ccc24)C3)cc1F [Example 131, (3-Fluoro-4-methanesulfonyl-phenyl)-[3-(7H-pyrrolo[2,3-d]pyrimidin-4-yl)-3,8-diaza-bicyclo[3.2.1]oct-8-yl]-methanone] | < 100 | < 100 | 100 to 500 | 100 to 500 | – | – | – | – | –
13 | NS(=O)(=O)c1ccc(NC(=O)C(=O)N2CCN(c3ncnc4[nH]ccc34)CC23CC3)cc1 [Example 401, 2-Oxo-2-[7-(7H-pyrrolo[2,3-d]pyrimidin-4-yl)-4,7-diaza-spiro[2.5]oct-4-yl]-N-(4-sulfamoyl-phenyl)-acetamide] | – | – | – | – | < 100 | < 100 | < 100 | < 100 | –
14 | Cc1c[nH]c2ncnc(N3CCN(C(=O)Cc4cccc(C#N)c4)C4(CC4)C3)c12 [Example 333, 3-{2-[7-(5-Methyl-7H-pyrrolo[2,3-d]pyrimidin-4-yl)-4,7-diaza-spiro[2.5]oct-4-yl]-2-oxo-ethyl}-benzonitrile] | – | – | – | – | > 500 | > 500 | > 500 | > 500 | –
15 | O=C(CC(F)(F)F)N1CCN(c2ncnc3[nH]ccc23)CC12CC2 [Example 24, 3,3,3-Trifluoro-1-[7-(7H-pyrrolo[2,3-d]pyrimidin-4-yl)-4,7-diazaspiro[2.5]oct-4-yl]propan-1-one] | < 100 | < 100 | < 100 | > 500 | – | – | – | – | –
16 | CN(C1CCCCC1)S(=O)(=O)N1CCN(c2ncnc3[nH]ccc23)CC12CC2 [Example 460, 7-(7H-Pyrrolo[2,3-d]pyrimidin-4-yl)-4,7-diaza-spiro[2.5]octane-4-sulfonic acid cyclohexyl-methyl-amide] | – | – | – | – | – | – | – | – | EC50 [1, 13]: < 100 nM; EC50 [2, 14]: < 100 nM; EC50 [3, 15]: 100 to 500 nM; EC50 [4, 16]: 100 to 500 nM
17 | N#CCCN1CCC(C(=O)N2CCN(c3ncnc4[nH]ccc34)CC23CC3)CC1 [Example 97, 3-{4-[7-(7H-Pyrrolo[2,3-d]pyrimidin-4-yl)-4,7-diaza-spiro[2.5]octane-4-carbonyl]-piperidin-1-yl}-propionitrile] | < 100 | 100 to 500 | 100 to 500 | > 500 | – | – | – | – | –
18 | CCCc1cc(C(=O)N2CCN(c3ncnc4[nH]ccc34)CC23CC3)cs1 [Example 207, (5-Propyl-thiophen-3-yl)-[7-(7H-pyrrolo[2,3-d]pyrimidin-4-yl)-4,7-diaza-spiro[2.5]oct-4-yl]-methanone] | – | – | – | – | < 100 | < 100 | 100 to 500 | 100 to 500 | –
19 | N#Cc1ccc(CC(=O)N2CCN(c3nc(N)nc4[nH]ccc34)CC23CC3)cc1 [Example 312, 4-{2-[7-(2-Amino-7H-pyrrolo[2,3-d]pyrimidin-4-yl)-4,7-diaza-spiro[2.5]oct-4-yl]-2-oxo-ethyl}-benzonitrile] | – | – | – | – | < 100 | < 100 | < 100 | 100 to 500 | –
20 | Cc1ccc(C(=O)N2CCN(c3ccnc4[nH]ccc34)CC23CC3)s1 [Example 231, (5-Methyl-thiophen-2-yl)-[7-(1H-pyrrolo[2,3-b]pyridin-4-yl)-4,7-diaza-spiro[2.5]oct-4-yl]-methanone] | – | – | – | – | < 100 | < 100 | 100 to 500 | 100 to 500 | –
21 | O=C(c1cccc2[nH]ccc12)N1[C@@H]2CC[C@H]1CN(c1ncnc3[nH]ccc13)C2 [Example 344, (1H-Indol-4-yl)-[3-(7H-pyrrolo[2,3-d]pyrimidin-4-yl)-3,8-diaza-bicyclo[3.2.1]oct-8-yl]-methanone] | – | – | – | – | 100 to 500 | < 100 | < 100 | 100 to 500 | –
22 | O=C(c1ccc(OC(F)(F)F)cc1)N1CCN(c2ccnc3[nH]ccc23)CC12CC2 [Example 238, [7-(1H-Pyrrolo[2,3-b]pyridin-4-yl)-4,7-diaza-spiro[2.5]oct-4-yl]-(4-trifluoromethoxy-phenyl)-methanone] | – | – | – | – | < 100 | 100 to 500 | > 500 | > 500 | –
